Measured values taken from patent US8765736B2, “Benzenesulfonamide compounds and the use thereof” (Purdue Pharma L.P., priority 2007, dated 2014).

Key:
[1] = molecular target: T1, recombinant rat L-type calcium channel (LTCC) subunits (α1c, α2δ, and β1) (Rattus norvegicus, UniProt P22002); assay: FLIPR calcium mobilization assay for L-type calcium channel; format: cell-based; details: calcium mobilization in vitro assay; HEK293 cells stably expressing rat LTCC subunits, 90 mM KCl
T1 construct: expressed in transfected cells; α1c in pcDNA6.2DEST, β1 in pcDNA3.2DEST, α2δ in pcDNA3.1-Zeo
Experimental: Recombinant human embryonal kidney cells (HEK293, ATCC) stably transfected with either N-type calcium channel (NTCC) subunits (α1b (SEQ ID NOs: 13 to 15), α2δ (SEQ ID Nos: 16, 17), and β3 (SEQ ID NOs:18 to 20)) or L-type calcium channel (LTCC) subunits (α1c (SEQ ID NOs:21, 22), α2δ, and β1 (SEQ ID NOs:23 to 25)) were routinely cultured in growth medium consisting of Dulbecco's Modified Eagles Medium containing 10% FBS, 100 U/mL penicillin, 100 μg/mL streptomycin, 4 mM L-glutamine, 500 μg/mL geneticin (G418), 20 μg/mL Blasticidin S (InVivogen, San Diego, Calif.) and 500 μg/mL zeocin (InVivogen).
FLIPR Calcium Mobilization Assay for L-type Calcium Channel. One day prior to performing this assay, HEK293 cells stably expressing recombinant rat L-type calcium channel (LTCC) subunits (α1c, α2δ, and β1) were trypsinized, then seeded on poly-D-lysine-coated 96-well clear-bottom black plates (Becton Dickinson, Franklin Lakes, N.J.) at 75,000 cells/well. On the day of the assay, the plates were washed with LTCC wash buffer (127 mM NaCl, 2 mM MgCl2, 700 μM NaH2PO4, 5 mM CaCl2, 5 mM NaHCO3, 8 mM HEPES, 10 mM glucose, pH 7.4), then loaded with 0.1 mL of LTCC wash buffer containing Fluo-4 (3 μM final concentration, Molecular Probes, Eugene, Oreg.). After 1 hour, the cells were washed with 0.1 mL LTCC wash buffer and resuspended in 0.05 mL LTCC assay buffer (same composition as LTCC wash buffer). Plates were then transferred to a FLIPR^96 for assay. The FLIPR measured basal Fluo-4 fluorescence for 15 seconds, then added 0.05 mL of each compound tested diluted in LTCC assay buffer at final concentrations ranging from about 846 pM to about […]. Fluo-4 fluorescence was then measured for 5 minutes. 0.1 mL KCl agonist dissolved in LTCC assay buffer was then added to the cells to produce a final concentration of 90 mM KCl, and fluorescence was measured for another 45 seconds. Data were collected over the entire time course and analyzed using Excel, Graph Pad Prism, or an in-house regression analysis software.
L-type Recombinant Cell Line Development. L-type calcium channel expressing HEK-293 cells were created in two stages. Stage 1 was created as follows. The rat α1c, and β1 cDNA expression constructs (2.5 μg each) were co-transfected into human embryonic kidney (HEK-293) cells by Lipofectamine Plus reagent (Invitrogen), as per manufacturer's instructions. 24 hours later, cells were split in limiting dilution into multiple 96-well plates in selection media containing 20 μg/mL blasticidin and 500 μg/mL geneticin, and incubated for 3 weeks at 37° C., 5% CO2, 95% humidity. Plates containing ≦1 clone per well were cultured until wells positive for single clones were confluent. Individual clones were then arrayed into columns of a destination 96-well plate, and partly split into 6-well plates for culture maintenance. Array plates were washed once with LTCC wash (or assay) buffer and cells loaded for 1 hour with 0.1 mL of LTCC buffer containing Fluo-4 (3 μM final concentration, Molecular Probes). Then they were washed twice with 0.1 mL of LTCC buffer, and replaced with 0.1 mL LTCC buffer. Plates were then transferred to a FLIPR^96 for assay. The FLIPR measured basal Fluo-4 fluorescence for 315 seconds, then added 0.1 mL KCl agonist dissolved in LTCC buffer and measured fluorescence for another 45 seconds. Final KCl concentration was 90 mM. Data were collected over the entire time course and analyzed using Excel, Graph Pad Prism, or Activity Base software. The clone with the greatest signal-to-noise ratio, best stability of response with passage number, and best adhesion to PDL precoated plates (Becton Dickinson) was expanded, characterized and used for stage 2 cell line development.
Stage 2 of L-type cell line development was carried out as follows. The rat α2δ cDNA expression construct (5 μg each) was transfected into the stage 1 L-type clonal cell line by Lipofectamine Plus reagent (Invitrogen), as per manufacturer's instructions. […]

[2] = molecular target: T2, N-type calcium channel (NTCC) (Homo sapiens, UniProt Q00975); assay: FLIPR calcium mobilization assay for N-type calcium channel; format: cell-based; details: calcium mobilization in vitro assay; differentiated IMR32 cells, 5 μM nitrendipine, 90 mM KCl
T2 construct: endogenous in cells; host or cells: IMR32 cells (ATCC), differentiated with dibutyryl cAMP and bromodeoxyuridine
Experimental: Cell maintenance and differentiation. Unless noted otherwise, cell culture reagents were purchased from Mediatech of Herndon, Md. IMR32 cells (American Type Culture Collection, ATCC, Manassas, Va.) were routinely cultured in growth medium consisting of minimum essential medium containing 10% fetal bovine serum (FBS, Hyclone, Logan, Utah), 100 U/mL penicillin, 100 μg/mL streptomycin, 2 mM L-glutamine, 1 mM sodium pyruvate, and 1×MEM non-essential amino acids. 80-90% confluent flasks of cells were differentiated using the following differentiation medium: Growth medium plus 1 mM dibutyryl cyclic AMP (Sigma, St. Louis, Mo.), and 2.5 μM bromodeoxyuridine (Sigma). Cells were differentiated for 8 days by replacing differentiation medium every 2-3 days.
FLIPR Calcium Mobilization Assay for N-type Calcium Channel. One day prior to performing this assay, differentiated IMR32 cells were treated with 1× CellStripper, and seeded on poly-D-lysine-coated 96-well clear-bottom black plates (Becton Dickinson, Franklin Lakes, N.J.) at 200,000 cells/well. On the day of the assay, the cell plates were washed with IMR32 buffer (127 mM NaCl, 1 mM KCl, 2 mM MgCl2, 700 μM NaH2PO4, 5 mM CaCl2, 5 mM NaHCO3, 8 mM HEPES, 10 mM glucose, pH 7.4), then pre-stimulated with KCl and loaded as follows: 0.05 mL of IMR32 buffer, 0.05 mL of each compound tested diluted in IMR32 buffer containing 20 μM nitrendipine (Sigma), and 0.1 mL KCl dissolved in IMR32 buffer, plus Fluo-4 were added (3 μM final concentration, Molecular Probes, Eugene, Oreg.). Final test compound concentrations ranged from about 846 pM to about 17 μM, final nitrendipine concentration was 5 μM, and final KCl concentration was 90 mM. After 1 hour, the cells were washed twice with 0.05 mL of each compound tested in nitrendipine-containing IMR32 buffer (no KCl or Fluo-4), and then replaced with 0.1 mL of each compound tested in nitrendipine-containing IMR32 buffer. Plates were then transferred to a Fluorimetric Imaging Plate Reader (FLIPR^96, Molecular Devices, Inc., Sunnyvale, Calif.) for assay. The FLIPR measured basal Fluo-4 fluorescence for 315 seconds (i.e., 5 minutes and 15 seconds), then added 0.1 mL KCl agonist dissolved in IMR32 buffer and measured fluorescence for another 45 seconds. Final test compound concentrations on the cells after FLIPR read ranged from about 846 pM to about 17 μM, final nitrendipine concentration was 5 μM, and final KCl concentration was 90 mM. Data were collected over the entire time course and analyzed using Excel, Graph Pad Prism (version 3.02, Graph Pad, San Diego, Calif.), or an in-house non-linear regression analysis software.

T2 sequence (Q00975 whole entry): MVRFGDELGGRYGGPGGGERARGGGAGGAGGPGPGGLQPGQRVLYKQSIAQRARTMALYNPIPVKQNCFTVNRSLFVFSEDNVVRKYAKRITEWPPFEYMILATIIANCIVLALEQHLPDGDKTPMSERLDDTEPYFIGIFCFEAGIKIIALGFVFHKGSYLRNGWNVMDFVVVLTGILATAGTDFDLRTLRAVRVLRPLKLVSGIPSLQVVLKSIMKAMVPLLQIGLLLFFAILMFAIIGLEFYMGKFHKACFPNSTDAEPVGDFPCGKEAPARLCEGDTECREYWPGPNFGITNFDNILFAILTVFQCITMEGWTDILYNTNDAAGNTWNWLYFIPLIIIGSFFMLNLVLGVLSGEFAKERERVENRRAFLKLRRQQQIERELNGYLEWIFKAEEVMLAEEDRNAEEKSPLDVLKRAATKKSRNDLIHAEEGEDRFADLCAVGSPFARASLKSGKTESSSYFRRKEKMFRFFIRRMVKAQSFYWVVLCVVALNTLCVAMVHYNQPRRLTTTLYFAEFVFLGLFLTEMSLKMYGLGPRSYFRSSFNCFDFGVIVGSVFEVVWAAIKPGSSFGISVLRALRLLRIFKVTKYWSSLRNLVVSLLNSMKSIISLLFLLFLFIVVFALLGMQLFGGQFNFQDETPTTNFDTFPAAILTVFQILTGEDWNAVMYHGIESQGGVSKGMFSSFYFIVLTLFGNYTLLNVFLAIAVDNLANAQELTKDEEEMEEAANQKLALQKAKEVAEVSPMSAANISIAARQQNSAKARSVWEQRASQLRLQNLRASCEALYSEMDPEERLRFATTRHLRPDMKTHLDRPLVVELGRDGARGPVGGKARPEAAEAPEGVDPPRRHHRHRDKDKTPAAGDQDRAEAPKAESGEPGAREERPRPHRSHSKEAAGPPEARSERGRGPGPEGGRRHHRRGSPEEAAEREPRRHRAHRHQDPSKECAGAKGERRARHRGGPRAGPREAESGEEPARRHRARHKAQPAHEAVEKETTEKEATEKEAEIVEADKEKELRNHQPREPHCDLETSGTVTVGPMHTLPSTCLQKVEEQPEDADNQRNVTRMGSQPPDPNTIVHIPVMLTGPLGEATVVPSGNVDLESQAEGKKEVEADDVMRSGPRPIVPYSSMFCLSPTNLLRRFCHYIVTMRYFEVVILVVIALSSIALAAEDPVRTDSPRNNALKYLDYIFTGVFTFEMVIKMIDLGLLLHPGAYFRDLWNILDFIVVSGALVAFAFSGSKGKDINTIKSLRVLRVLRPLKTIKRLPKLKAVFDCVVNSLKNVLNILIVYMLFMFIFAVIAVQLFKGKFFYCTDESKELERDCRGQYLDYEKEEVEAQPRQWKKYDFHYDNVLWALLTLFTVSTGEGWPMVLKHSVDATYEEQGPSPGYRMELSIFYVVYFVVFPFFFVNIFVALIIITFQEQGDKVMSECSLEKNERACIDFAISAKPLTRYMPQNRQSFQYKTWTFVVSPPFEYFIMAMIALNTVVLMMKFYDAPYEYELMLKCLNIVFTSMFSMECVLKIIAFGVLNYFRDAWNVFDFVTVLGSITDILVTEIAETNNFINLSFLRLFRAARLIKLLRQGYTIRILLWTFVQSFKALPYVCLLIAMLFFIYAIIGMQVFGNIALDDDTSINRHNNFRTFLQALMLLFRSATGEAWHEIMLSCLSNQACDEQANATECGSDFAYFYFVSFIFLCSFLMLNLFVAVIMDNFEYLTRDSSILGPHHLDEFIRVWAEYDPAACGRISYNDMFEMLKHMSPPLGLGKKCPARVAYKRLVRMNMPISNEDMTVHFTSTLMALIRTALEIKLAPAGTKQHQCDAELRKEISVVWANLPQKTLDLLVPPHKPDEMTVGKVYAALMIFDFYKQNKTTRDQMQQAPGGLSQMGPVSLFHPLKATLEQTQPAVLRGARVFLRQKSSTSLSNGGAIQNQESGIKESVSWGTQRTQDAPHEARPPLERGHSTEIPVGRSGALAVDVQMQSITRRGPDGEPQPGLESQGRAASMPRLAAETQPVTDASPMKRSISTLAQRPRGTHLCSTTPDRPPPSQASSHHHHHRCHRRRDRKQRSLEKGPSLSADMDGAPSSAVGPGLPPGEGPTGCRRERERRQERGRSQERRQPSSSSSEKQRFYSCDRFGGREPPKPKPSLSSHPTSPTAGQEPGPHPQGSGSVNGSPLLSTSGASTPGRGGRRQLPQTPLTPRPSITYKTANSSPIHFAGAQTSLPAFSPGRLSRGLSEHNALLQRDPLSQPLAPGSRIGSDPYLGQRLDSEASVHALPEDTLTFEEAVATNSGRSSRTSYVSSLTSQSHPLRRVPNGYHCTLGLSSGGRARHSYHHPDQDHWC
T2 sequence (P54289 25-956 partner limits assumed): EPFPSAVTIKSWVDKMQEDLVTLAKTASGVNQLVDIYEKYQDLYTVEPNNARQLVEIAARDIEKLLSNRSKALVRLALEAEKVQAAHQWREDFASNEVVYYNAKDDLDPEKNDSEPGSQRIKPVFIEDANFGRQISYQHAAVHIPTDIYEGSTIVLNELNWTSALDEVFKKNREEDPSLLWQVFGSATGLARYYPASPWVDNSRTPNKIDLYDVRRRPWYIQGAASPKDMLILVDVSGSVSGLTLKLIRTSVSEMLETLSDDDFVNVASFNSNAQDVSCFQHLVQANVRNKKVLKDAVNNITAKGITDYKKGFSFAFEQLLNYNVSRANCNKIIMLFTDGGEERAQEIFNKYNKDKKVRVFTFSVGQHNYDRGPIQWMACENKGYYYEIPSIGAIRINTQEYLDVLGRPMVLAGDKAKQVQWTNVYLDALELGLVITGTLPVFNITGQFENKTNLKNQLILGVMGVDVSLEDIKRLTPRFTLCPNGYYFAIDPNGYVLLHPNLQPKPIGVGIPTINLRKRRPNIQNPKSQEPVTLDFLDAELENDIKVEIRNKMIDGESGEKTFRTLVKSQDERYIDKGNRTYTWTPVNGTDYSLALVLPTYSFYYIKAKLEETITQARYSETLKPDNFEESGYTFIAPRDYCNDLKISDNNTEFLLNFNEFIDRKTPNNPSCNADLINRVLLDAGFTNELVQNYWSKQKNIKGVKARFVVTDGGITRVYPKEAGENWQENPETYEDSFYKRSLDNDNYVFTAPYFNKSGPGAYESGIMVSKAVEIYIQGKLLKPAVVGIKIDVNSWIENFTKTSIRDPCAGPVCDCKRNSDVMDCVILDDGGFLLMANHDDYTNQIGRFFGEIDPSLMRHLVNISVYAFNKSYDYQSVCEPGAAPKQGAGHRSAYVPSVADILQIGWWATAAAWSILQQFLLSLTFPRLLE
T2 sequence (P54289 957-1103 partner limits assumed): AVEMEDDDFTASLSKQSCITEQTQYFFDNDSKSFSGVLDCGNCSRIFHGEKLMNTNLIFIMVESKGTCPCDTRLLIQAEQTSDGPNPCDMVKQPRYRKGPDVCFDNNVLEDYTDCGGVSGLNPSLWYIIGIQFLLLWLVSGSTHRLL
T2 sequence (P54284 whole entry partner): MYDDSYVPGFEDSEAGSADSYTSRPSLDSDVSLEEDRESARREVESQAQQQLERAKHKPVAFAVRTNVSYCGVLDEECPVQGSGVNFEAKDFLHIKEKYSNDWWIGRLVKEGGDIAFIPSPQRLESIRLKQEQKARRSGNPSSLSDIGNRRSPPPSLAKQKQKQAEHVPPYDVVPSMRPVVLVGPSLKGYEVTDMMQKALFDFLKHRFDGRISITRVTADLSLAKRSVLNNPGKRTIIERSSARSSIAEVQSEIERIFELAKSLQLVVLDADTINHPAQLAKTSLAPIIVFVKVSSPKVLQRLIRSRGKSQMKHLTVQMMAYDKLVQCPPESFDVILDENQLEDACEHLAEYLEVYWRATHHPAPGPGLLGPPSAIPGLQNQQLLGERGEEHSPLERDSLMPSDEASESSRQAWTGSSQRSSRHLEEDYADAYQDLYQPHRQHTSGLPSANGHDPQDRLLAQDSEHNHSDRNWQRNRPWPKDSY

| IC50 [1] | IC50 [2] | SMILES |
| --- | --- | --- |
| > 20000 nM | 550 nM | CC(C)N(C1CCN(C2CCN(c3ccccc3)C2=O)CC1)S(=O)(=O)c1cccc(C(F)(F)F)c1 (stereo not drawn) [Compound 27a, N-Isopropyl-N-[1-(2-oxo-1-phenyl-pyrrolidin-3-yl)-piperidin-4-yl]-3-trifluoromethyl-benzenesulfonamide] |
| > 20000 nM | 390 nM | CC(C(=O)Nc1ccccc1)N1CCC(N(C2CC2)S(=O)(=O)c2cccc(C(F)(F)F)c2)CC1 (stereo not drawn) [Compound 27b, 2-{4-[Cyclopropyl-(3-trifluoromethyl-benzenesulfonyl)-amino]piperidin-1-yl}-N-phenyl-propionamide] |
| > 20000 nM | 300 nM | CC(C)N(C1CCN(CC(=O)N2CCCCCC2)CC1)S(=O)(=O)c1cccc(C(F)(F)F)c1 [Compound 31a, N-[1-(2-Azepan-1-yl-2-oxo-ethyl)-piperidin-4-yl]-N-isopropyl-3-trifluoromethyl-benzenesulfonamide] |
| 7850 nM | 260 nM | CC(C)N(C1CCN(CC(=O)NC2CCCCCC2)CC1)S(=O)(=O)c1cccc(C(F)(F)F)c1 [Compound 31c, N-Cycloheptyl-2-{4-[isopropyl-(3-trifluoromethyl-benzenesulfonyl)-amino]-piperidin-1-yl}-acetamide] |
| 4120 nM | 340 nM | CC(C)N(C1CCN(CC(=O)NC2CC3CCC2C3)CC1)S(=O)(=O)c1cccc(C(F)(F)F)c1 (stereo not drawn) [Compound 31d, N-Bicyclo[2.2.1]hept-2-yl-2-{4-[isopropyl-(3-trifluoromethyl-benzenesulfonyl)-amino]-piperidin-1-yl}-acetamide] |
| > 20000 nM | 580 nM | CC(C)N(C1CCN(CC(=O)Nc2ccc3c(c2)OC(F)(F)O3)CC1)S(=O)(=O)c1cccc(C(F)(F)F)c1 [Compound 31f, N-(2,2-Difluoro-benzo[1,3]dioxol-5-yl)-2-{4-[isopropyl-(3-trifluoromethyl-benzenesulfonyl)-amino]-piperidin-1-yl}-acetamide] |
